Consider 18 compounds from patent US9346761B2, “Arginine methyltransferase inhibitors and uses thereof” (Epizyme, Inc., priority 2013, dated 2016).

Broadly, the pIC50 is the IC50 on a negative log10 scale, so that one unit is a factor of ten. Lower therefore signals a large IC50. As a reminder, the EC30 is the concentration needed for an effect of 30%.

pIC50: −log10 of the molar value. Where two headings read alike, the source gives them in different places.

The target of one assay is T1, Full-length human PRMT3 (Homo sapiens, UniProt O60678).
T1 construct: GST-tagged PRMT3; made in house; host or cells: E. coli BL21(DE3) Gold (pGEX-KG)
Description: PRMT3 biochemical assay (3H-SAM Flashplate, peptide substrate). The gist of the method: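 Methylation of a biotinylated peptide (330 nM) by 0.5 nM GST-PRMT3 using 3H-SAM 100 nM with unlabelled SAM 1.8 uM, 20 mM Bicine pH 7.6, 2% DMSO, after 30 min enzyme–compound preincubation. Scintillation counts on streptavidin Flashplates normalised to 1 mM SAH and DMSO controls; curve fits with floating or fixed Hill slope.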

The test system of assay [1] is mono-methyl arginine in RKO cells. Description: RKO methylation assay, In Cell Western for mono-methyl arginine and DNA content. In kind it is cell-based. The note with it: Homo sapiens.
[2] abbreviates: In Cell Western, RKO cells, 72 hours, percent activation of mono-methyl arginine signal, read-out: EC30.

T1 sequence (O60678 with tags, fused parts or gaps): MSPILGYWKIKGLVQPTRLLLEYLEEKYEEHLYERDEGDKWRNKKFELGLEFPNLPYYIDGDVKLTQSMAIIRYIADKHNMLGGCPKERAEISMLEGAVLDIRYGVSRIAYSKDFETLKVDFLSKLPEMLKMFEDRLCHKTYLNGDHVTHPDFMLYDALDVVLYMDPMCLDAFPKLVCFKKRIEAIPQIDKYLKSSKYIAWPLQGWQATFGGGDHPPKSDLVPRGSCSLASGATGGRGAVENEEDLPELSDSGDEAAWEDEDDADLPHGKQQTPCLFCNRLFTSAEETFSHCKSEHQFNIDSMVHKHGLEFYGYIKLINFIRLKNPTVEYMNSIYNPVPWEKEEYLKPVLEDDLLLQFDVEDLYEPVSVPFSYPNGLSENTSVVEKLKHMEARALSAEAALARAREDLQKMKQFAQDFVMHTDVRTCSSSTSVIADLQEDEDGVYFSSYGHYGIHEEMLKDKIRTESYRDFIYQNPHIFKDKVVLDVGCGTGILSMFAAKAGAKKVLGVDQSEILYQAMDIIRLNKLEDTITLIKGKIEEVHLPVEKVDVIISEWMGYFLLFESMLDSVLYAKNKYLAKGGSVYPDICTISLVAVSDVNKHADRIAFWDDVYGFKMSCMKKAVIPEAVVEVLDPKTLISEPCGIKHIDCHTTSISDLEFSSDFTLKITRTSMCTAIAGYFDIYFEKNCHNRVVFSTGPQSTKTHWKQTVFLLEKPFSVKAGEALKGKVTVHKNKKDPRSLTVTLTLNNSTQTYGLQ

On to `NCCN(Cc1c[nH]nc1-c1ccc(F)cc1)C1CC1` [Compound 78], for which the pIC50 against Full-length human PRMT3 is less than 5.00. Also, in assay [1] (setting [2]), the EC30 was 3.01 to 12 µM.

As for `CN(CCN)Cc1cn(CC2COC2)nc1-c1ccc(F)cc1` [Compound 79], the pIC50 against Full-length human PRMT3 is less than 5.00. In addition, in assay [1] (setting [2]), the 30% effect concentration (EC30) is more than 12 µM.

Turning to `CN(CCN)Cc1cnn(CC2COC2)c1-c1ccc(F)cc1` [Compound 80], the pIC50 against Full-length human PRMT3 is less than 5.00. The EC30 in assay [1] (setting [2]) is more than 12 µM.

As to `CN(CCN)Cc1cnn(C2COC2)c1-c1ccc(F)cc1` [Compound 81], at Full-length human PRMT3, the pIC50 was less than 5.00. Further, the EC30 in assay [1] (setting [2]) was more than 12 µM.

`CN(CCN)Cc1c[nH]nc1-c1ccc(N2CCNCC2)cc1` [Compound 82] had a pIC50 on Full-length human PRMT3 of 5.52 to 6.00. Further, the EC30 in assay [1] (setting [2]) was more than 12 µM.

For the compound `CN(CCN)Cc1nn(C)cc1-c1ccc(C#N)cc1` [Compound 83], the pIC50 against Full-length human PRMT3 was less than 5.00. The EC30 in assay [1] (setting [2]) lay within 3.01 to 12 µM.

As to `CN(CCN)Cc1c(-c2ccc(C#N)cc2)cnn1C` [Compound 84], the pIC50 on Full-length human PRMT3 was less than 5.00. The EC30 in assay [1] (setting [2]) is more than 12 µM.

At Full-length human PRMT3, `CN(CCN)Cc1c[nH]nc1-c1ccc(C(F)(F)F)cc1C(F)(F)F` [Compound 85] gave a pIC50 of less than 5.00. The EC30 in assay [1] (RKO, 72 h) was more than 12 µM.

Regarding `CN(CCN)Cc1c[nH]nc1-c1ccc(Cl)cc1Cl` [Compound 86], the pIC50 at Full-length human PRMT3 is 5.00 to 5.52. Further, the EC30 in assay [1] (setting [2]) fell in the range of 3.01 to 12 µM.

The compound `COc1ccc(-c2n[nH]cc2CN(C)CCN)c(OC)c1` [Compound 87] had a pIC50 against Full-length human PRMT3 of less than 5.00. The EC30 in assay [1] (setting [2]) was more than 12 µM.

In the case of `Cc1ccc(-c2n[nH]cc2CN(C)CCN)c(C)c1` [Compound 88], on Full-length human PRMT3, the pIC50 was 5.00 to 5.52. In assay [1] (setting [2]), the concentration for an effect of 30% (EC30) was more than 12 µM.

Turning to `CN(CCN)Cc1c[nH]nc1-c1ccc(F)cc1Cl` [Compound 89], the negative-log IC50 (pIC50) against Full-length human PRMT3 is 5.00 to 5.52. Besides, the EC30 in assay [1] (setting [2]) lay in the range of 3.01 to 12 µM.

At Full-length human PRMT3, `Cc1ccc(-c2n[nH]cc2CN(C)CCN)c(Cl)c1` [Compound 90] gave a pIC50 of 5.00 to 5.52. Moreover, the EC30 in assay [1] (setting [2]) lay in the range of 3.01 to 12 µM.

Turning to `Cc1ccc(Cl)c(-c2n[nH]cc2CN(C)CCN)c1` [Compound 91], the pIC50 at Full-length human PRMT3 is less than 5.00. The 30% effect concentration (EC30) in assay [1] (setting [2]) was more than 12 µM.

In turn, `CN(CCN)Cc1c[nH]nc1-c1ccc(C(F)(F)F)cc1` [Compound 92] gave a pIC50 against Full-length human PRMT3 of 5.00 to 5.52. Further, the EC30 in assay [1] (setting [2]) is less than 3 µM.

Take `CN(CCN)Cc1c[nH]nc1-c1ccc(OC(F)(F)F)cc1` [Compound 93]: at Full-length human PRMT3, the pIC50 is 5.00 to 5.52. Further, the EC30 in assay [1] (setting [2]) is less than 3 µM.

`CN(CCN)Cc1c[nH]nc1-c1ccc(OC(F)F)cc1` [Compound 94] had a pIC50 at Full-length human PRMT3 of 5.00 to 5.52. In assay [1] (setting [2]), the EC30 was less than 3 µM.

At Full-length human PRMT3, `CC(C)Oc1ccc(-c2n[nH]cc2CN(C)CCN)cc1Cl` [Compound 168] showed a pIC50 of 5.00 to 5.52. Further, the EC30 in assay [1] (setting [2]) was less than 3 µM.
